Experimental data taken from patent US10279190B2, “Treating disease with resonance generating electromagnetic fields” (Anapole Technologies Inc., priority 2016, dated 2019).
Marks after values point to notes of the source that are not given here.

Assays:
[1] = system: U-87 MG cells; details: 25 nM, 72 hours; "has been shown"; cited from earlier work
[2] = system: U-87 MG cells; test: Caspase-3/7 activation in U-87 MG cells; assay type: cell-based; details: 25 nM, 72 hours, vs vehicle control
Experimental: (§1) U-87 MG cells may be plated at a density of 8×10^5 cells/150-mm dish. 48 hours after plating, cells may be treated with vehicle control or 25 nM docetaxel for 72 hours. At the end of treatment, cells may be harvested by trypsinization, and an aliquot of live/unfixed cells may be used to determine cell number, PS externalization, and caspase-3/7 activity using a cell analyzer. Remaining cells may be fixed for cell cycle analysis using a cell analyzer and DNA fragmentation analysis by BD LSRII Flow Cytometry as described below.
U-87 MG cells harvested by trypsinization may be pooled with media plus washes and pelleted by centrifugation. The cells may be re-suspended in complete media diluted 1:10 with PBS (1% FBS/PBS). […]
Cleavage by active caspase-3/7 releases the dye within the cell and results in translocation to the nucleus, binding to DNA and high fluorescence. […] A cell cycle reagent may be a proprietary formulation containing the DNA intercalating dye propidium iodide and RNAse A. The multiparametric fluorescent detection of individual cells may be performed by a cell analyzer, a microcapillary flow cytometer equipped with a 532-nm laser, a forward scatter and two fluorescence (YLW 576/26, RED 680/30) detectors. […]

[3] = system: U-87 MG cells; test: DNA fragmentation of U-87 MG cells (APO-BRDU, flow cytometry); assay type: cell-based; details: 25 nM, 72 hour treatment; percentage of the cell population, mean±SD, n=2
Experimental: as §1
For analysis of DNA fragmentation, U-87 MG cells may be harvested by trypsinization, collected by centrifugation, fixed in 2% formaldehyde in PBS, and permeabilized in 70% EtOH at −20° C. DNA strand breaks in cells undergoing apoptosis may be indirectly labeled with bromodeoxyuridine by terminal transferase and detected by FITC-conjugated monoclonal antibody to bromodeoxyuridine using the APO-BRDU kit according to manufacturer's protocol. Cells may be counterstained with 5 μg/ml propidium iodide containing RNase A for detection of total DNA, and two-color analysis of DNA strand breaks and cell cycle may be achieved by flow cytometry. Flow cytometric analysis may be performed on a BD LSR II Flow Cytometer equipped with three excitation lasers (405-nm, 488-nm and 633-nm). For DNA fragmentation analysis, FITC and PI signals may be collected by 488-nm octagon detection array with no color compensation. 10,000 events gated on single cell populations may be collected and post-acquisition analysis may be performed using software FlowJo 7.6.5.
Table 6 is an analysis of DNA fragmentation of U-87 MG cells after 72 hour treatment with 25 nM docetaxel. DNA fragmentation may be determined by flow cytometry as described above.

[4] = system: U-87 MG cells; test: U-87 MG cell number (count & viability) after docetaxel treatment; assay type: cell-based; details: 25 nM docetaxel, 72 hours, vs vehicle control, not significant
Experimental: as §1
(§2) U-87 MG cells harvested by trypsinization may be pooled with media plus washes and pelleted by centrifugation. The cells may be re-suspended in complete media diluted 1:10 with PBS (1% FBS/PBS). For determination of count and viability, an aliquot of the cell suspension may be diluted 1:10 with a count & viability reagent, which differentially stains viable and non-viable cells based on their permeability to two DNA binding dyes, and incubated for 5 minutes in the dark at room temperature according to manufacturer's protocol. For detection of phosphatidylserine (PS) externalization, an aliquot of cell suspension appropriately diluted in 1% FBS/PBS may be mixed 1:1 with an Annexin V & dead cell reagent and incubated for 20 minutes in the dark at room temperature according to manufacturer's protocol. […]

[5] = system: U-87 MG cells; test: Cell cycle analysis of U-87 MG cells (cell cycle reagent, propidium iodide); assay type: cell-based; details: 25 nM, 72 hour treatment; proportion of cells in cell cycle phase, mean±SD, n=3
Experimental: as §1
Cleavage by active caspase-3/7 releases the dye within the cell and results in translocation to the nucleus, binding to DNA and high fluorescence. For cell cycle analysis, an ethanol-fixed cell suspension may be obtained by taking an aliquot of cell suspension, pelleting by centrifugation, resuspending in PBS, and fixing in 70% ethanol at −20° C. Fixed cells may be washed in PBS/0.2% BSA, pelleted by centrifugation, resuspended in a cell cycle reagent, and incubated for 30 minutes in the dark at room temperature according to manufacturer's protocol. A cell cycle reagent may be a proprietary formulation containing the DNA intercalating dye propidium iodide and RNAse A. The multiparametric fluorescent detection of individual cells may be performed by a cell analyzer, a microcapillary flow cytometer equipped with a 532-nm laser, a forward scatter and two fluorescence (YLW 576/26, RED 680/30) detectors. Data acquisition and analysis of count & viability, Annexin V & dead cell, and caspase-3/7 assays may be done by analysis software. Post-acquisition analysis of cell cycle data may be performed using software (e.g., FlowJo 7.6.5).
Table 5 is a cell cycle analysis of U-87 MG cells after 72 hour treatment with 25 nM docetaxel. At the end of 72 hour treatment, cells may be harvested and cell cycle may be determined by incubating the cells in a cell cycle reagent and following the manufacturer's protocol. Data represent the mean±SD of three independent biological replicates (*p<0.1).

[6] = system: U-87 MG cells; test: PS externalization (Annexin V staining) in U-87 MG cells; assay type: cell-based; details: 25 nM, 72 hours, vs vehicle control
Experimental: as §1, §2

In the case of `CC(=O)O[C@@]12CO[C@@H]1C[C@H](O)[C@@]1(C)C(=O)[C@H](O)C3=C(C)[C@@H](OC(=O)[C@H](O)[C@@H](NC(=O)OC(C)(C)C)c4ccccc4)C[C@@](O)([C@@H](OC(=O)c4ccccc4)[C@H]21)C3(C)C` [Docetaxel, docetaxel], the “arresting cell growth in U-87 MG cells, compared with temozolomide” value [1] is given as “as effective as temozolomide”, the caspase-3/7 activation [2] is given as “significant increase” and the “DNA Frag (+) Apoptotic bodies (upper left quadrant)” value [3] is given as 0.10 ± 0.0%. For the same compound, the “DNA Frag (+) Cells (upper right quadrant)” value [3] was 2.11 ± 1.69%, the “DNA Frag (−) Apoptotic bodies (lower left quadrant)” value [3] was 3.57 ± 1.65% and the “DNA Frag (−) Cells (lower right quadrant)” value [3] was 94.2 ± 0.07%. For the same compound, the “decrease in U-87 MG cell number” value [4] was 20%, the “decrease in U-87 MG cell number” value ([4]; listed as docetaxel) was “approximately 20%” and the G1 [5] was 39.7 ± 4.8*. For the same compound, the G2/M [5] was 22.1 ± 4.4, the S [5] was 26.7 ± 1.7* and the Sub-G0 [5] was 9.9 ± 3.9*. For the same compound, the “Annexin V positive cells” value [6] was “significant increase”.
